Among the test systems are A498 renal; CAKI-1 renal; EKVX NSCLC; KM12 colon; SK-MEL-28 melanoma; SK-MEL-5 melanoma; SN12C renal; SNB-19 CNS; OVCAR-8 ovarian; RXF 393 renal.
Assay in all cases: NCI-60 cell line screen, 48 h

13 compounds from PubChem BioAssay (NCI) can be followed below.

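Dose response: 5 concentrations. Exposure: 48 h. Format: 96-well plates. Endpoint: linear interpolation; highest concentration if not reached. GI50: concentration for 50% inhibition of growth. TGI: total growth inhibition.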

Take `CC(=O)Nc1ccc2nncnc2c1`: the TGI with A498 renal, with CAKI-1 renal, in the experiment with EKVX NSCLC, with KM12 colon, with SK-MEL-28 melanoma and with SK-MEL-5 melanoma was > 100 µM throughout. Besides, the TGI with SN12C renal and in the experiment on SNB-19 CNS was > 100 µM each time.

Regarding `CC(=O)OC1C=CC2CCN3C(=O)c4cc5c(cc4[C@H]1C23)OCO5` (some centres not stated), the TGI in the experiment with EKVX NSCLC, in the experiment with KM12 colon, in the experiment on OVCAR-8 ovarian, in the experiment on RXF 393 renal, with SK-MEL-28 melanoma and in the experiment on SN12C renal was > 100 µM each time. Moreover, the TGI in the experiment with SNB-19 CNS was > 100 µM.

`O=C1NC(=NCc2cccs2)SC1Cc1ccc2ncccc2c1` (configuration not stated): the GI50 in the experiment with A498 renal was 13.1 µM; with CAKI-1 renal, 19.5 µM; in the experiment on KM12 colon it was 15.6 µM; with OVCAR-8 ovarian, > 25 µM; with RXF 393 renal it was > 19.3 µM; in the experiment on SK-MEL-28 melanoma, > 19.9 µM. Besides, the results for the GI50 in the experiment on SK-MEL-5 melanoma, in the experiment on SN12C renal and with SNB-19 CNS were 17.4 µM, > 23.6 µM and > 25 µM, respectively. Moreover, the TGI in the experiment with A498 renal, with CAKI-1 renal, with KM12 colon, with OVCAR-8 ovarian, in the experiment on RXF 393 renal and with SK-MEL-28 melanoma was > 25 µM each time. In addition, the TGI with SK-MEL-5 melanoma, with SN12C renal and in the experiment on SNB-19 CNS was > 25 µM in each case.

As for `COC(=O)CCC(NC(=S)N/N=C(\C)c1ccccn1)C(=O)OC` (configuration not stated), the TGI in the experiment with A498 renal, in the experiment on EKVX NSCLC, in the experiment with KM12 colon, in the experiment on OVCAR-8 ovarian, with RXF 393 renal and in the experiment on SK-MEL-28 melanoma was > 100 µM each time. Further, the TGI in the experiment with SK-MEL-5 melanoma, with SN12C renal and with SNB-19 CNS was > 100 µM in each case.

As for `COc1ccc(/C=C2/C(=O)N(C(=O)c3ccccc3O)N=C2C)cc1OC`, the TGI in the experiment with CAKI-1 renal is > 28.1 µM; in the experiment on EKVX NSCLC it was > 100 µM; in the experiment with KM12 colon it was > 100 µM; in the experiment with OVCAR-8 ovarian, > 100 µM; with RXF 393 renal, 0.097 µM; in the experiment on SK-MEL-28 melanoma it was > 100 µM. Also, the TGI with SK-MEL-5 melanoma was 24.6 µM; with SN12C renal it was > 50.7 µM.

In the case of `Cc1ccc2nc3c(Cl)cc(=O)cc-3sc2c1`, the TGI in the experiment with CAKI-1 renal came out at 71.1 µM; with EKVX NSCLC, 39.1 µM; in the experiment on OVCAR-8 ovarian, 43.4 µM; with SK-MEL-28 melanoma, 81.4 µM; with SK-MEL-5 melanoma it was 30.8 µM.

Take `CCOC(=O)CC(=O)ON(C)C(=O)Cc1ccccc1`: the TGI in the experiment with A498 renal, with CAKI-1 renal, in the experiment on EKVX NSCLC, in the experiment on KM12 colon, in the experiment on OVCAR-8 ovarian and in the experiment with SK-MEL-5 melanoma was > 100 µM in each case. The TGI in the experiment with SN12C renal and in the experiment on SNB-19 CNS was > 100 µM each time.

Consider `COc1cc2c(cc1OCCCCNC(=O)c1cc3ccccc3[nH]1)N=CC1CCCN1C2=O` (configuration not stated), for which the GI50 in the experiment with A498 renal is 22.2 µM; with EKVX NSCLC it was 17.8 µM; in the experiment with KM12 colon, 16.9 µM; in the experiment with OVCAR-8 ovarian, 16.7 µM; in the experiment with RXF 393 renal it was 2.35 µM; in the experiment on SK-MEL-28 melanoma, 37.5 µM. The GI50 was 5.65 µM in the experiment on SK-MEL-5 melanoma, 18.9 µM with SN12C renal and 20.2 µM in the experiment with SNB-19 CNS. Besides, the TGI was 44.4 µM in the experiment with A498 renal; 42.2 µM in the experiment with EKVX NSCLC; 52.6 µM in the experiment with KM12 colon; 78.9 µM with OVCAR-8 ovarian; 6.28 µM in the experiment with RXF 393 renal; > 100 µM in the experiment on SK-MEL-28 melanoma. Further, the TGI in the experiment with SK-MEL-5 melanoma was 23.9 µM; with SN12C renal it was 44.8 µM; in the experiment with SNB-19 CNS it was > 100 µM.

On to `c1cncc(CNc2ccccc2-c2nnc(Nc3ccc4c(c3)OCO4)o2)c1`, for which the GI50 was 0.0199 µM in the experiment with A498 renal; 0.0551 µM with CAKI-1 renal; 0.328 µM with EKVX NSCLC; 0.0505 µM in the experiment on KM12 colon; 0.127 µM in the experiment with OVCAR-8 ovarian; 0.0654 µM in the experiment with SK-MEL-28 melanoma. The GI50 with SK-MEL-5 melanoma is 0.0449 µM; in the experiment on SN12C renal, 0.0994 µM; with SNB-19 CNS it was 0.112 µM. Besides, the TGI in the experiment with A498 renal, with CAKI-1 renal, in the experiment on EKVX NSCLC, with KM12 colon, with OVCAR-8 ovarian and with SK-MEL-28 melanoma was > 100 µM throughout. For the same compound, the TGI with SK-MEL-5 melanoma, in the experiment with SN12C renal and in the experiment on SNB-19 CNS was > 100 µM throughout.

With `O=C(c1cc2ccccc2[nH]1)C(O)(c1cc2ccccc2[nH]1)c1cc2ccccc2[nH]1`, the TGI in the experiment on CAKI-1 renal, in the experiment with EKVX NSCLC, in the experiment with KM12 colon, in the experiment on OVCAR-8 ovarian, in the experiment on RXF 393 renal and in the experiment on SK-MEL-28 melanoma was > 246 µM throughout. Also, the TGI in the experiment on SK-MEL-5 melanoma, in the experiment with SN12C renal and in the experiment with SNB-19 CNS was > 246 µM each time.

Take `C/C=C/C=N/N(c1nnc(-c2ccccc2)c(-c2ccccc2)n1)S(=O)(=O)c1ccc(C)cc1`: the TGI in the experiment on A498 renal was 27.6 µM; in the experiment with CAKI-1 renal it was 31.4 µM; with EKVX NSCLC, 31.9 µM; in the experiment with KM12 colon, 22.9 µM; with OVCAR-8 ovarian, 20.7 µM; in the experiment on SK-MEL-28 melanoma, 28.7 µM. Moreover, the TGI in the experiment on SK-MEL-5 melanoma came to 23.1 µM; in the experiment with SN12C renal it was 20.7 µM.

Turning to `CC(C)(O)[C@@H]1CCC(C)([C@H]2[C@@H](O)CC3(C)C4CC(OC5OC(CO)C(O)C(O)C5O)C5C(C)(C)[C@@H](OC6OCC(O)C(O)C6O)CC[C@@]56C[C@@]46CC[C@]23C)O1` (some centres not stated), the TGI in the experiment with EKVX NSCLC, in the experiment on KM12 colon, in the experiment with OVCAR-8 ovarian, in the experiment on RXF 393 renal, with SK-MEL-28 melanoma and in the experiment on SK-MEL-5 melanoma was > 100 µM each time. Moreover, the TGI with SN12C renal and with SNB-19 CNS was > 100 µM in each case.

As to `NC(=S)N/N=C(/CC(=O)c1ccc([N+](=O)[O-])cc1)C(=O)Nc1ncc([N+](=O)[O-])s1`, the TGI in the experiment on EKVX NSCLC, with KM12 colon, in the experiment with OVCAR-8 ovarian, in the experiment on RXF 393 renal, in the experiment with SK-MEL-28 melanoma and in the experiment on SK-MEL-5 melanoma was > 100 µM throughout. In addition, the TGI in the experiment on SN12C renal and in the experiment on SNB-19 CNS was > 100 µM each time.
